# Assay results as given in article PMC3813752 (PLoS ONE, 2013).
# Like-named read-outs stand apart in the source and are kept apart here.
# How the values were obtained:
# human GPR18 [1] = target: T1, human GPR18 (Homo sapiens, UniProt Q14330); conditions: test compound 10 µM, related to effect of Δ9-THC 10 µM = 100%
# T1 sequence (Q14330 1-331): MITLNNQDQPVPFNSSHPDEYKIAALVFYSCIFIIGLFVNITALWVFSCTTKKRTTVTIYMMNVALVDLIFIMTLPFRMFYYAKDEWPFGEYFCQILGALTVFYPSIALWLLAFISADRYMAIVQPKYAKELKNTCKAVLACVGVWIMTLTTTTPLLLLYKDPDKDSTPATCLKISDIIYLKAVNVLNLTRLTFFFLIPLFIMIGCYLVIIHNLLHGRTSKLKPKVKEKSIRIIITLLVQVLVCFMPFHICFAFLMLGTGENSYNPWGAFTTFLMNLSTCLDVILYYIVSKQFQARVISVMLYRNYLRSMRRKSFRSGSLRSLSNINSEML
# human GPR18 [2] = target: T1, human GPR18; experiment: cell-based; conditions: for inhibition at 10 µM: CHO, read-out: % inhibition of Δ9-THC (10 µM)-induced β-arrestin recruitment at GPR18, test compound at 10 µM; for IC50: GPR18 IC50, β-arrestin recruitment, antagonist mode vs. Δ9-THC (10 µM)
# human GPR55 = human GPR55 (Homo sapiens, UniProt Q9Y2T6); experiment: β-arrestin recruitment assay (PathHunter), CHO cells expressing GPR55; conditions: for inhibition at 10 µM: CHO; for IC50: GPR55 IC50, β-arrestin recruitment, antagonist mode vs. LPI (1 µM); for agonist effect on β-arrestin recruitment at GPR55: test compound 10 µM, related to effect of LPI 1 µM = 100%
# human CB1 receptor = human CB1 receptor (Homo sapiens, UniProt P21554); experiment: biochemical; assay type: binding; conditions: for inhibition at 10 µM: vs. [3H]CP55,940, read-out: % inhibition of radioligand binding at CB1; for Ki: membranes of CHO cells expressing human CB1, three independent experiments in duplicates, read-out: Ki CB1, heterologous competition vs. [3H]CP55,940
# human CB2 receptor = human CB2 receptor (Homo sapiens, UniProt P34972); experiment: Radioligand binding (heterologous competition) vs. [3H]CP55,940 at CB2; conditions: for inhibition at 10 µM: read-out: % inhibition of radioligand binding at CB2
# [3] = Ki CB2, heterologous competition vs. [3H]CP55,940, membranes of CHO cells expressing human CB2, three independent experiments in duplicates
# [4] = membranes of CHO cells expressing human CB2, three independent experiments in duplicates, read-out: Ki CB2, heterologous competition vs. [3H]CP55,940
# [5] = read-out: % inhibition of LPI (1 µM)-induced β-arrestin recruitment at GPR55, test compound at 10 µM
# Sequence of human CB2 receptor (P34972 whole entry): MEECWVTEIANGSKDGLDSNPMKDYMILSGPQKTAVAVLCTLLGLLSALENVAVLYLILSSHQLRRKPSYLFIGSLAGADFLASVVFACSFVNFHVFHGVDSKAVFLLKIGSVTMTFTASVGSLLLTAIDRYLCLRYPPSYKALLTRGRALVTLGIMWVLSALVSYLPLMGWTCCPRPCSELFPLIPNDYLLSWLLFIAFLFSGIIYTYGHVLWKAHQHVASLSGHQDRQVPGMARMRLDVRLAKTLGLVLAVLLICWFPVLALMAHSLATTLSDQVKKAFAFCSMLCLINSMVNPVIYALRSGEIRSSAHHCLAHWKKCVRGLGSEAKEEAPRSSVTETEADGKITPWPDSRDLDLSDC
# Sequence of human CB1 receptor (P21554 whole entry): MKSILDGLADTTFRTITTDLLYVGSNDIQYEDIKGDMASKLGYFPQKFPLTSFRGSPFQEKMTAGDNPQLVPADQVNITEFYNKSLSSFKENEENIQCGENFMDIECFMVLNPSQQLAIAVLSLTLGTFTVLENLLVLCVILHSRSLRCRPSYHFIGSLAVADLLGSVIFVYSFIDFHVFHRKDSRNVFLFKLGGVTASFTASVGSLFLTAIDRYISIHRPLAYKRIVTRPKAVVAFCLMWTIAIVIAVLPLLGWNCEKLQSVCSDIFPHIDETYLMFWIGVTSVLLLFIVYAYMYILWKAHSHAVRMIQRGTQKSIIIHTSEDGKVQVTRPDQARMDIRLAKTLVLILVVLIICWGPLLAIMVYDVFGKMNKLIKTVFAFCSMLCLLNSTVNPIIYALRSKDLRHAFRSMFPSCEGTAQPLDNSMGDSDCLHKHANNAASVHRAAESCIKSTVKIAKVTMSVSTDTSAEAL
# Sequence of human GPR55 (Q9Y2T6 whole entry): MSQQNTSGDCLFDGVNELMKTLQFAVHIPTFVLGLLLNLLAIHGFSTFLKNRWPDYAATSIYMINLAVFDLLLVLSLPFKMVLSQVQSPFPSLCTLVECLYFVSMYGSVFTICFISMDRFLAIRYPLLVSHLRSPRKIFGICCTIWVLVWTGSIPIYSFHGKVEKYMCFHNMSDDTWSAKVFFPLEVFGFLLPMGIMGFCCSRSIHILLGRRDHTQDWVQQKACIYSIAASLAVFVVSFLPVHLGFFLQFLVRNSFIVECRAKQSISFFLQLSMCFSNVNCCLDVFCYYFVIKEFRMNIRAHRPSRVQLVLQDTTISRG
smiles,measurement,setting,value
"C=CCc1ccc(O)c(-c2ccc(O)c(CC=C)c2)c1 [Compound 10, honokiol, reference compound]",agonist effect on β-arrestin recruitment at GPR18,human GPR18 [1],0%
same,EC50,human GPR18 [2],> 10 µM
same,inhibition at 10 µM,human GPR18 [2],45%
same,IC50,human GPR18 [2],~10 µM
same,EC50,human GPR55,> 10 µM
same,inhibition at 10 µM,human GPR55; read-out: % inhibition of LPI (1 µM)-induced β-arrestin recruitment at GPR55,42%
same,IC50,human GPR55,~10 µM
same,agonist effect on β-arrestin recruitment at GPR55,human GPR55,27%
"Oc1ccccc1-c1ccccc1O [Compound 40, 2-(2-hydroxyphenyl)phenol]",inhibition at 10 µM,human CB1 receptor,11%
same,Ki,human CB1 receptor,> 1 µM
same,Ki,human CB2 receptor; [3],> 1 µM
same,inhibition at 10 µM,human CB2 receptor,0%
Cc1ccc(O)c(-c2cc(C)ccc2O)c1 [Compound 41],inhibition at 10 µM,human CB1 receptor,23%
same,Ki,human CB1 receptor,> 1 µM
same,Ki,human CB2 receptor; [3],> 0.01 µM
same,inhibition at 10 µM,"human CB2 receptor; at 10 µM, vs. [3H]CP55,940",30%
same,Ki,human CB2 receptor; [4],> 1 µM
same,agonist effect on β-arrestin recruitment at GPR18,human GPR18 [1],20%
same,EC50,human GPR18 [2],> 10 µM
same,inhibition at 10 µM,human GPR18 [2],0%
same,IC50,human GPR18 [2],> 10 µM
same,EC50,human GPR55,> 10 µM
same,inhibition at 10 µM,human GPR55; [5],0%
same,IC50,human GPR55,> 10 µM
same,agonist effect on β-arrestin recruitment at GPR55,human GPR55,30%
CCc1ccc(O)c(-c2cc(CC)ccc2O)c1 [Compound 42],Ki,human CB1 receptor,2.13 ± 0.84 µM
same,Ki,human CB2 receptor; [4],2.87 ± 0.77 µM
same,agonist effect on β-arrestin recruitment at GPR18,human GPR18 [1],6%
same,EC50,human GPR18 [2],> 10 µM
same,inhibition at 10 µM,human GPR18 [2],12%
same,IC50,human GPR18 [2],> 10 µM
same,EC50,human GPR55,> 10 µM
same,inhibition at 10 µM,human GPR55; [5],0%
same,IC50,human GPR55,> 10 µM
same,agonist effect on β-arrestin recruitment at GPR55,human GPR55,23%
CCCCCCc1ccc(O)c(-c2cc(CCCCCC)ccc2O)c1 [Compound 45],Ki,human CB1 receptor,4.64 ± 0.58 µM
same,Ki,human CB2 receptor; [4],1.83 ± 0.19 µM
same,agonist effect on β-arrestin recruitment at GPR18,human GPR18 [1],0%
same,EC50,human GPR18 [2],> 10 µM
same,inhibition at 10 µM,human GPR18 [2],127%
same,IC50,human GPR18 [2],11.7 ± 2.8 µM
same,EC50,human GPR55,> 10 µM
same,inhibition at 10 µM,human GPR55; [5],0%
same,IC50,human GPR55,> 10 µM
same,agonist effect on β-arrestin recruitment at GPR55,human GPR55,0%
CCCc1ccc(O)c(-c2ccccc2O)c1 [Compound 46],inhibition at 10 µM,human CB1 receptor,45%
same,inhibition at 10 µM,"human CB2 receptor; at 10 µM, vs. [3H]CP55,940",49%
same,Ki,"human CB2 receptor; vs. [3H]CP55,940, read-out: Ki CB2",~10 µM
same,agonist effect on β-arrestin recruitment at GPR18,human GPR18 [1],0%
same,EC50,human GPR18 [2],> 10 µM
same,inhibition at 10 µM,human GPR18 [2],0%
same,IC50,human GPR18 [2],> 10 µM
same,EC50,human GPR55,> 10 µM
same,inhibition at 10 µM,human GPR55; [5],37%
same,IC50,human GPR55,> 10 µM
same,agonist effect on β-arrestin recruitment at GPR55,human GPR55,25%
CCCCc1ccc(O)c(-c2ccccc2O)c1 [Compound 47],inhibition at 10 µM,human CB1 receptor,40%
same,Ki,human CB1 receptor,~1 µM
same,Ki,human CB2 receptor; [4],2.03 ± 0.88 µM
same,agonist effect on β-arrestin recruitment at GPR18,human GPR18 [1],0%
same,EC50,human GPR18 [2],> 10 µM
same,inhibition at 10 µM,human GPR18 [2],24%
same,IC50,human GPR18 [2],> 10 µM
same,EC50,human GPR55,> 10 µM
same,inhibition at 10 µM,human GPR55; [5],35%
same,IC50,human GPR55,> 10 µM
same,agonist effect on β-arrestin recruitment at GPR55,human GPR55,2%
CCCCCc1ccc(O)c(-c2ccccc2O)c1 [Compound 48],Ki,human CB1 receptor,6.59 ± 2.56 µM
same,Ki,human CB2 receptor; [4],1.16 ± 0.29 µM
same,agonist effect on β-arrestin recruitment at GPR18,human GPR18 [1],0%
same,EC50,human GPR18 [2],> 10 µM
same,inhibition at 10 µM,human GPR18 [2],18%
same,IC50,human GPR18 [2],> 10 µM
same,EC50,human GPR55,~10 µM
same,inhibition at 10 µM,human GPR55; [5],25%
same,IC50,human GPR55,> 10 µM
same,agonist effect on β-arrestin recruitment at GPR55,human GPR55,42%
CCCCCCc1ccc(O)c(-c2ccccc2O)c1 [Compound 49],Ki,human CB1 receptor,6.63 ± 5.03 µM
same,Ki,human CB2 receptor; [4],1.5 ± 0.64 µM
same,agonist effect on β-arrestin recruitment at GPR18,human GPR18 [1],0%
same,EC50,human GPR18 [2],> 10 µM
same,inhibition at 10 µM,human GPR18 [2],48%
same,IC50,human GPR18 [2],~10 µM
same,EC50,human GPR55,> 10 µM
same,inhibition at 10 µM,human GPR55; [5],34%
same,IC50,human GPR55,> 10 µM
same,agonist effect on β-arrestin recruitment at GPR55,human GPR55,39%
CCCc1ccc(O)c(-c2cc(C)ccc2O)c1 [Compound 50],inhibition at 10 µM,human CB1 receptor,20%
same,Ki,human CB1 receptor,> 1 µM
same,Ki,human CB2 receptor; [3],7.38 ± 2.76 µM
same,agonist effect on β-arrestin recruitment at GPR18,human GPR18 [1],0%
same,EC50,human GPR18 [2],> 10 µM
same,inhibition at 10 µM,human GPR18 [2],21%
same,IC50,human GPR18 [2],> 10 µM
same,EC50,human GPR55,> 10 µM
same,inhibition at 10 µM,human GPR55; [5],4%
same,IC50,human GPR55,> 10 µM
same,agonist effect on β-arrestin recruitment at GPR55,human GPR55,26%
CCCCc1ccc(O)c(-c2cc(C)ccc2O)c1 [Compound 51],inhibition at 10 µM,human CB1 receptor,44%
same,Ki,human CB1 receptor,~1 µM
same,Ki,human CB2 receptor; [4],1.69 ± 0.53 µM
same,agonist effect on β-arrestin recruitment at GPR18,human GPR18 [1],0%
same,EC50,human GPR18 [2],> 10 µM
same,inhibition at 10 µM,human GPR18 [2],44%
same,IC50,human GPR18 [2],~10 µM
same,EC50,human GPR55,> 10 µM
same,inhibition at 10 µM,human GPR55; [5],0%
same,IC50,human GPR55,> 10 µM
same,agonist effect on β-arrestin recruitment at GPR55,human GPR55,18%
